In US20240158446A1, “CYCLIC COMPOUND HAVING SELECTIVE INHIBITORY ACTION ON KRAS OVER HRAS AND NRAS” (CHUGAI SEIYAKU KABUSHIKI KAISHA, priority 2021, published 2024):

How the values were obtained:
[1] = target: GDP-bound KRAS wild-type protein (Homo sapiens, UniProt P01116); test: Binding to KRAS by surface plasmon resonance (SPR), Single Cycle Kinetics; conditions: SPR, Single Cycle Kinetics, GDP-bound KRAS wild-type protein; read-out: KRAS KD
[2] = target: GDP-bound NRAS wild-type protein (Homo sapiens, UniProt P01111); test: Binding to NRAS by surface plasmon resonance (SPR), Single Cycle Kinetics; conditions: ratio of KD for GDP-bound NRAS wild-type protein to KD for KRAS, SPR
[3] = target: GDP-bound HRAS wild-type protein (Homo sapiens, UniProt P01112); test: Binding to HRAS by surface plasmon resonance (SPR), Single Cycle Kinetics; conditions: ratio of KD for GDP-bound HRAS wild-type protein to KD for KRAS, SPR
[4] = tested on: human lung cancer strain NCI-H441; test: cells; conditions: NCI-H441, 96 h, read-out: NCI-H441 IC50 (nM), NCI-H441 cell proliferation, 4 days, CellTiter-Glo;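 note: cell proliferation inhibition after four days measured by CellTiter-Glo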

Sequence of GDP-bound NRAS wild-type protein (P01111 whole entry): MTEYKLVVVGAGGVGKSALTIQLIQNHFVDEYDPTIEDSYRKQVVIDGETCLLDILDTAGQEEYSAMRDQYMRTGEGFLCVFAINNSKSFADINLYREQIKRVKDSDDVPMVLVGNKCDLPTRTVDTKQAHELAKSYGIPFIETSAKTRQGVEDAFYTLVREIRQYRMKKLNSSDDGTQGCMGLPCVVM
Sequence of GDP-bound KRAS wild-type protein (P01116 whole entry): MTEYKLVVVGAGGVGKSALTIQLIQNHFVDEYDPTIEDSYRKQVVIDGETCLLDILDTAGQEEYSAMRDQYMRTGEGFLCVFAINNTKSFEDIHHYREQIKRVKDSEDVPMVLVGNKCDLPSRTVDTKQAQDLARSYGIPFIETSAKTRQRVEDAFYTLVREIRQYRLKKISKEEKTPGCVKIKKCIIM
Sequence of GDP-bound HRAS wild-type protein (P01112 whole entry): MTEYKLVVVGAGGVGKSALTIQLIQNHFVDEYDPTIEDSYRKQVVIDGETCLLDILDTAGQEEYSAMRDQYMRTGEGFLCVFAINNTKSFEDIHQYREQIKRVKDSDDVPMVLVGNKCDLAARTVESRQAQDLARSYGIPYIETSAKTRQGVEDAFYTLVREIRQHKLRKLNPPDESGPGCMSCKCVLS

Row | SMILES | Kd [1] [nM] | NRAS/KRAS (KD ratio) [2] | HRAS/KRAS (KD ratio) [3] | IC50 [4] [nM]
1 | CCC[C@H]1C(=O)N[C@@H]([C@@H](C)CC)C(=O)N(C)CC(=O)N(C)[C@H]2C/C=C\CCN(C2=O)[C@@H](Cc2ccc(C(F)(F)F)cc2)C(=O)N(C)CC(=O)N[C@@H](CCc2cc(F)c(C(F)(F)F)c(F)c2)C(=O)N2CC(F)(F)C[C@H]2C(=O)NC2(CC(C)(C)C2)C(=O)N(C)[C@@H](C2CCCC2)C(=O)N(C)[C@H](C(=O)N(C)C)CC(=O)N1C [PP1711] | 0.093 | A (a compound having 10 or more and less than 20 is denoted as A) | B (a compound having 3 or more and less than 10 is denoted as B) | 5
2 | CC[C@H](C)[C@@H]1NC(=O)[C@H](CC2CC2)N(C)C(=O)C[C@@H](C(=O)N(C)C)N(C)C(=O)[C@H](C2CCCC2)N(C)C(=O)C2(CC(C)(C)C2)NC(=O)[C@@H]2CC(F)(F)CN2C(=O)[C@H](CCc2cc(F)c(C(F)(F)F)c(F)c2)NC(=O)CN(C)C(=O)[C@H](Cc2ccc(C(F)(F)F)cc2)N2CC/C=C\C[C@@H](C2=O)N(C)C(=O)CN(C)C1=O [PP1713] | 0.096 | A (a compound having 10 or more and less than 20 is denoted as A) | A (a compound having 10 or more and less than 20 is denoted as A) | 7.9
3 | CCCC[C@H]1C(=O)N[C@@H]([C@@H](C)CC)C(=O)N(C)CC(=O)N(C)[C@H]2C/C=C\CCN(C2=O)[C@@H](Cc2ccc(C(F)(F)F)cc2)C(=O)N(C)CC(=O)N[C@@H](CCc2cc(F)c(C(F)(F)F)c(F)c2)C(=O)N2CC(F)(F)C[C@H]2C(=O)NC2(CC(C)(C)C2)C(=O)N(C)[C@@H](C2CCCC2)C(=O)N(C)[C@H](C(=O)N(C)C)CC(=O)N1C [PP1714] | 0.1 | A (a compound having 10 or more and less than 20 is denoted as A) | A (a compound having 10 or more and less than 20 is denoted as A) | 4.3
4 | CC[C@H](C)[C@@H]1NC(=O)[C@H](CC(C)C)N(C)C(=O)C[C@@H](C(=O)N(C)C)N(C)C(=O)[C@H](C2CCCC2)N(C)C(=O)C2(CC(C)(C)C2)NC(=O)[C@@H]2CC(F)(F)CN2C(=O)[C@H](CCc2cc(F)c(C(F)(F)F)c(F)c2)NC(=O)CN(C)C(=O)[C@H](Cc2ccc(C(F)(F)F)cc2)N2CC/C=C\C[C@@H](C2=O)N(C)C(=O)CN(C)C1=O [PP1715] | 0.061 | AA (a compound having 20 or more is denoted as AA) | A (a compound having 10 or more and less than 20 is denoted as A) | 2.7
5 | CC[C@H](C)[C@@H]1NC(=O)[C@H](CC2CCC2)N(C)C(=O)C[C@@H](C(=O)N(C)C)N(C)C(=O)[C@H](C2CCCC2)N(C)C(=O)C2(CC(C)(C)C2)NC(=O)[C@@H]2CC(F)(F)CN2C(=O)[C@H](CCc2cc(F)c(C(F)(F)F)c(F)c2)NC(=O)CN(C)C(=O)[C@H](Cc2ccc(C(F)(F)F)cc2)N2CC/C=C\C[C@@H](C2=O)N(C)C(=O)CN(C)C1=O [PP1716] | 0.099 | AA (a compound having 20 or more is denoted as AA) | A (a compound having 10 or more and less than 20 is denoted as A) | 3.8
6 | CC[C@H](C)[C@@H]1NC(=O)[C@H](COC)N(C)C(=O)C[C@@H](C(=O)N(C)C)N(C)C(=O)[C@H](C2CCCC2)N(C)C(=O)C2(CC(C)(C)C2)NC(=O)[C@@H]2CC(F)(F)CN2C(=O)[C@H](CCc2cc(F)c(C(F)(F)F)c(F)c2)NC(=O)CN(C)C(=O)[C@H](Cc2ccc(C(F)(F)F)cc2)N2CC/C=C\C[C@@H](C2=O)N(C)C(=O)CN(C)C1=O [PP1717] | 0.051 | A (a compound having 10 or more and less than 20 is denoted as A) | A (a compound having 10 or more and less than 20 is denoted as A) | 2.4
